As a reminder, the inhibition is the relative decrease from the control value, in per cent. For orientation: IC50 means the concentration that inhibits the measured activity by half. A lower IC50 goes with inhibition by little substance. By Kd is commonly meant the concentration at which binding is half-saturated. A low value points to a tighter complex.

Calls of active or inactive are those of the source. The rule behind the calls is not given here.

Assay [1] has as its target T1, Lectin (Burkholderia cenocepacia (strain ATCC BAA-245 / DSM 16553 / LMG 16656/ NCTC 13227 / J2315 / CF5610) (Burkholderia cepacia (strain J2315))) (UniProt B4EH87).
T1 sequence (whole entry): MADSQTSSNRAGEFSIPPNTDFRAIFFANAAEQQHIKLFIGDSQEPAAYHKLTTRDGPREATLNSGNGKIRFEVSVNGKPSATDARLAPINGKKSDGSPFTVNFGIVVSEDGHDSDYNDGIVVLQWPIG
The assay can be described thus: Displacement of N-(fluorescein-5-yl)-N'-(alpha-D-mannopyranosyloxyethyl)-thiocarbamide from Burkholderia cenocepacia J2315 BC2L-A expressed in Escherichia coli BL21 (DE3) cells up to 666 uM incubated for 3 to 4 hrs by fluorescence polarization assay relative to control.

Assay [2] addresses T2, Lectin (Burkholderia cenocepacia (strain ATCC BAA-245 / DSM 16553 / LMG 16656/ NCTC 13227 / J2315 / CF5610) (Burkholderia cepacia (strain J2315)), UniProt B4EH87).
T2 sequence (B4EH87 whole entry): T1 sequence (whole entry)
The assay can be described thus: Displacement of N-(fluorescein-5-yl)-N'-(alpha-D-mannopyranosyloxyethyl)-thiocarbamide from Burkholderia cenocepacia J2315 BC2L-A expressed in Escherichia coli BL21 (DE3) cells incubated for 3 to 4 hrs by fluorescence polarization assay.

A short description of assay [3]: Displacement of N-(fluorescein-5-yl)-N'-(alpha-L-fucopyranosyl-O-ethyl)-thiocarbamide from Pseudomonas aeruginosa LecB expressed in Escherichia coli BL21 (DE3) cells up to 666 uM incubated for 6 hrs by fluorescence polarization assay. Background: Fluorescence polarisation rises when a labelled molecule tumbles more slowly, as on binding a larger partner.
Assay [4] concerns the target T2, Lectin (Burkholderia cenocepacia (strain ATCC BAA-245 / DSM 16553 / LMG 16656/ NCTC 13227 / J2315 / CF5610) (Burkholderia cepacia (strain J2315)), UniProt B4EH87). The assay is described as follows: Binding affinity to Burkholderia cenocepacia J2315 BC2L-A expressed in Escherichia coli BL21 (DE3) cells.
Assay [5] shares this target. The assay is described as follows: Binding affinity to Burkholderia cenocepacia J2315 BC2L-A expressed in Escherichia coli BL21 (DE3) cells by isothermal titration calorimetry. In general terms: ITC needs no label: the signal is the heat of the interaction.
The target is the same in assay [6]. The assay can be described thus: Binding affinity to Burkholderia cenocepacia J2315 BC2L-A expressed in Escherichia coli BL21 (DE3) cells by microcalorimetry.

As to `C[C@@H]1O[C@H](C)[C@@H](O)[C@H](O)[C@@H]1O`, the inhibition result in assay [1] was “inactive”.

Regarding `CO[C@H]1O[C@H]([C@@H](O)CNS(=O)(=O)c2c(C)cc(C)cc2C)[C@@H](O)[C@H](O)[C@@H]1O`, the IC50 in assay [2] amounted to 13.8 µM. That is a double-digit micromolar value.

Regarding `C[C@@H]1OC[C@@H](O)[C@H](O)[C@@H]1O`, the inhibition result in assay [1] was “inactive”.

Take `CO[C@H]1O[C@H]([C@H](O)CNC(=O)/C=C/c2ccccc2)[C@@H](O)[C@H](O)[C@@H]1O`: in assay [1], the inhibition result was “inactive”.

For `C=CCO[C@H]1O[C@H](CO)[C@@H](O)[C@H](OC)[C@@H]1O`, the inhibition result in assay [3] is “inactive”. This compound also displayed an inhibition in assay [1] of 56%.

For the compound `C[C@@H]1OC[C@@H](F)[C@H](O)[C@@H]1O`, the inhibition entry in assay [3] and in assay [1] was “inactive” in each case.

`CO[C@H]1O[C@H]([C@@H](O)CNC(=O)c2ccccc2)[C@@H](O)[C@H](O)[C@@H]1O`: in assay [2], the concentration for half-maximal inhibition (IC50) is 104 µM.

On to `OC[C@H]1OC[C@@H](O)[C@@H](O)[C@@H]1O`, for which, in assay [2], the IC50 was 2.9 µM.

`CO[C@H]1O[C@H]([C@@H](O)CNC(=O)/C=C/c2ccccc2)[C@@H](O)[C@H](O)[C@@H]1O` showed an IC50 in assay [2] of 64 µM.

With `CO[C@H]1O[C@H]([C@H](O)CNC(=O)c2ccccc2)[C@@H](O)[C@H](O)[C@@H]1O`, the inhibition result in assay [1] was “inactive”.

For the compound `C[C@@H]1O[C@H](CO)[C@@H](O)[C@H](O)[C@@H]1O`, in assay [2], the IC50 stood at 13 µM.

On to `OC[C@H]1OC(O)[C@@H](F)[C@@H](O)[C@@H]1O` (stereo not given in full), for which the inhibition entry in assay [3] and in assay [1] was “inactive” in each case.

As for `CO[C@H]1O[C@H](CBr)[C@@H](O)[C@H](O)[C@@H]1O`, the inhibition entry in assay [1] is “inactive”.

With `C=CCO[C@H]1O[C@H](CO)[C@@H](OC)[C@H](O)[C@@H]1O`, the inhibition result in assay [3] and in assay [1] was “inactive” throughout.

Turning to `CO[C@H]1O[C@H](CN)[C@@H](O)[C@H](O)[C@@H]1O`, the inhibition entry in assay [1] was “inactive”.

In assay [2], `Cc1cc(=O)oc2cc(O[C@H]3O[C@H](CO)[C@@H](O)[C@H](O)[C@@H]3O)ccc12` showed a half-inhibitory concentration (IC50) of 14.5 µM.

`C[C@H](O)[C@@H](O)[C@@H](O)[C@H](O)C=O` [L-FUCOSE]: the IC50 in assay [4] came to 2300 µM; in assay [2], 498 µM.

As for `CO[C@H]1O[C@H]([C@@H](O)CNS(=O)(=O)c2ccc(C)cc2)[C@@H](O)[C@H](O)[C@@H]1O`, in assay [2], the IC50 was 19.1 µM.

`OC[C@H]1OC(O)[C@@H](O)[C@@H](F)[C@@H]1O` (stereo not given in full): the inhibition result in assay [3] and in assay [1] was “inactive” throughout.

As for `CO[C@@H]1O[C@@H](C)[C@@H](O)[C@@H](O)[C@@H]1O`, the inhibition entry in assay [1] is “inactive”.

On to `C=CCO[C@H]1O[C@H](CO)[C@@H](O)[C@H](O)[C@@H]1O`, for which the IC50 in assay [2] is 13.6 µM.

Consider `CO[C@H]1O[C@@H](C)[C@@H](O)[C@@H](O)[C@@H]1O`, for which the inhibition result in assay [1] was “inactive”.

`CO[C@H]1O[C@H](CCl)[C@@H](O)[C@H](O)[C@@H]1O`: the inhibition result in assay [1] was “inactive”.

As for `CO[C@H]1O[C@H]([C@@H](O)CNC(C)=O)[C@@H](O)[C@H](O)[C@@H]1O`, the half-inhibitory concentration (IC50) in assay [2] was 116 µM.

The compound `Cc1cc(=O)oc2cc(O[C@@H]3O[C@H](CO)[C@@H](O)[C@H](O)[C@@H]3O)ccc12` gave a half-maximal inhibitory concentration (IC50) in assay [2] of 7.4 µM.

As for `CO[C@H]1O[C@H](CI)[C@@H](O)[C@H](O)[C@@H]1O`, the inhibition result in assay [1] was “inactive”.

The compound `CO[C@H]1OC(C(O)CO)C(O)C(O)C1O` (stereo not given in full) yielded a Kd in assay [5] of 54 µM.

As to `CO[C@H]1O[C@H](CO)[C@@H](O)[C@H](O)[C@@H]1O`, the concentration for half-maximal inhibition (IC50) in assay [2] is 7 µM. In addition, in assay [6], binding was characterised by a dissociation constant (Kd) of 2.7 µM.

(Values after ChEMBL document CHEMBL3797049, “Development of a competitive binding assay for the Burkholderia cenocepacia lectin BC2L-A and structure activity relationship of natural and synthetic inhibitors” (Medchemcomm, 2016).)
